Experiment [1] has as its system cardiomyocytes generated from mouse tail tip fibroblasts (TTFs). The experiment is described as follows: β-adrenergic and muscarinic stimulation of induced cardiomyocytes (beating, Ca2+ transients). It is filed as cell-based. To be noted: applied locally. As to the method:
Myocytes were loaded with 5 μM Fluo-4 AM (Molecular Probes, Invitrogen Corp, Carlsbad, Calif.), a Ca^++ indicator dye for 20 minutes at room temperature followed by 20 minutes in dye-free extracellular solution to allow for Fluo-4 de-esterification prior to commencing recordings. Ca^++ transients were recorded via a standard filter set (#49011 ET, Chroma Technology Corp., Bellows Falls, Vt.) and a photomultiplier-based recording system (lonOptix PMT400, Milton, Mass.). Fluorescence was recorded simultaneously from an entire myocyte cluster. Between sampling periods, excitation light was blocked by a shutter (CS35; Vincent Associates, Rochester, N.Y.) and background fluorescence was recorded after removing the cell(s) from the field of view at the end. Where applicable, 1 μM isoproterenol (Iso) or 25 μM carbachol (Cch) were applied locally (to the cell cluster of interest) using a perfusion pencil (AutoMate Scientific, Berkeley, Calif.).
Intact […] nervous system responses to hormones and transmitters are one of the most critical characteristics of normal cardiomyocytes. […] After washing out carbachol, cells resumed contracting and the Ca^2+ transients immediately returned to normal (FIG. 4H).

Another experiment concerns the target adenylate cyclase 1 (Homo sapiens, UniProt Q08828). To be noted: cited from earlier work.
Another experiment concerns the target SAPK2/p38 (Homo sapiens, UniProt Q16539). The note with it: CK1 and ALK5 inhibitor versus SAPK2/p38; cited from earlier work.

SMILES strings stand for the structures.

Results on four molecules are retold here after patent publication US10144915B2, “Reprogramming fibroblasts into cardiomyocytes” (The J. David Gladstone Institutes, a testamentary trust …, priority 2013, dated 2018).

SAPK2/p38, sequence (Q16539 whole entry): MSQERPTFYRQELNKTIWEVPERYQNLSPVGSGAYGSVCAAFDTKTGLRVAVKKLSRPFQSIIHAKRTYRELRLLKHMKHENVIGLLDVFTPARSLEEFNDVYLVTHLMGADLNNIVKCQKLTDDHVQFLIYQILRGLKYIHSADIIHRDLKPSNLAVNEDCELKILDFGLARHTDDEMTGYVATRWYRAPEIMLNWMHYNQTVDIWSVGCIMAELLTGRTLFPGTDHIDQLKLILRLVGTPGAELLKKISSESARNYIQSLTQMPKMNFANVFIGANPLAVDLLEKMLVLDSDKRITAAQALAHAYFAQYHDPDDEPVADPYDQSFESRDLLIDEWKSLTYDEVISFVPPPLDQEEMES
adenylate cyclase 1, sequence (Q08828 whole entry): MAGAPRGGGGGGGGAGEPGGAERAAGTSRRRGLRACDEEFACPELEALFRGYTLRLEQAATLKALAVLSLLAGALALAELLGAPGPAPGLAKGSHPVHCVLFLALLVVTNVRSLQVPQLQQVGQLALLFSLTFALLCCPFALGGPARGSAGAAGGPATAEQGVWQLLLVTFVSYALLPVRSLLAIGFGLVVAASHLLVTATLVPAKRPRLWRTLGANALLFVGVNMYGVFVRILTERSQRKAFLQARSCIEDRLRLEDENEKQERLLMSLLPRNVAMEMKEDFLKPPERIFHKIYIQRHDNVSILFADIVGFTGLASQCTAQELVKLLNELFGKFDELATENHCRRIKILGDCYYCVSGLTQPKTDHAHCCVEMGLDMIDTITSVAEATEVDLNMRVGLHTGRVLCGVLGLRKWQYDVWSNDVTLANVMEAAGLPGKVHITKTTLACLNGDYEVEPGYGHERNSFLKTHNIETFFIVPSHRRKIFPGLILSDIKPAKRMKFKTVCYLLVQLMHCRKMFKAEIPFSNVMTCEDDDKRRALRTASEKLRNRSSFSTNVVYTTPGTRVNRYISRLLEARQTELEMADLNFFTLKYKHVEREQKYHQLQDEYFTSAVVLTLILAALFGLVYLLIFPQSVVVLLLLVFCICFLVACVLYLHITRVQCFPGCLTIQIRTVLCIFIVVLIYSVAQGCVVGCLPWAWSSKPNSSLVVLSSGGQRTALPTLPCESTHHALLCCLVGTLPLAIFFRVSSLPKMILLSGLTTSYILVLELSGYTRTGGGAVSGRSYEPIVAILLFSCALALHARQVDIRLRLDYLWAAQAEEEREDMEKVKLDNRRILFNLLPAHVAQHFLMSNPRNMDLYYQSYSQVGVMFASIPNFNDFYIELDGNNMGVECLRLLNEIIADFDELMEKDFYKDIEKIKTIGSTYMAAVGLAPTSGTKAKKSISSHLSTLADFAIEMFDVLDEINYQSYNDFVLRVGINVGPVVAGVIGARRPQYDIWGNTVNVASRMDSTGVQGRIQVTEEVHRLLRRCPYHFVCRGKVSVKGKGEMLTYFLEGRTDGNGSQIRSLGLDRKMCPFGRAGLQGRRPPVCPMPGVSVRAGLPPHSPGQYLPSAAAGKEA

Regarding `CC(C)NCC(O)c1ccc(O)c(O)c1` (stereo not shown) [isoproterenol], in experiment [1] (1 μM), the “frequency of cell contracting and spontaneous calcium transients” value is given as “significantly increased”. As for `C[N+](C)(C)CCOC(N)=O` [carbachol], the “frequency of cell contracting and spontaneous calcium transients” value in experiment [1] (25 μM, reversible on wash-out) was “opposite effect”.

Regarding `C=C[C@@]1(C)CC(=O)[C@]2(O)[C@@]3(C)[C@@H](O)CCC(C)(C)[C@@H]3[C@H](O)[C@H](OC(C)=O)[C@@]2(C)O1` [Forskolin], the IC50 on adenylate cyclase 1 is 40 to 150 nM. As to `NC(=O)c1ccc(-c2nc(-c3ccc4c(c3)OCCO4)c(-c3ccccn3)[nH]2)cc1` [D 4476, 4-[4-(2,3-Dihydro-1,4-benzodioxin-6-yl)-5-(2-pyridinyl)-1H-imidazol-2-yl]benzamide], the “selectivity over SAPK2/p38” value on SAPK2/p38 was “greater than 20 fold”.

As a reminder, the IC50 is the point on the concentration scale where inhibition reaches its midpoint.
